Measured values published in US20090227671A1, “Prevention and treatment of atherosclerosis with lithospermate B” (Industry-Academic Cooperation Foundation, priority 2005, published 2009).

How the values were obtained:
[1] = tested on: intracellular reactive oxygen species; assay: Intracellular reactive oxygen species in VSMC (DCF fluorescence); assay type: cell-based, Sprague-Dawley rats; conditions: LAB pretreatment 1 hr
Description: The amount of reactive oxygen species in cells was measured as described in the previous report [Hamaguchi A, Kim S, Izumi Y, et al. Contribution of extracellular signal-regulated kinase to angiotensin II-induced transforming growth factor-beta1 expression in vascular smooth muscle cells. Hypertension. July 1999; 34(1):126-131]. VSMC was cultured in a culture medium without serum for 24 hrs to stop cell proliferation and then pretreated with LAB with various concentrations of 1, 5, 10, 20, 30 μM for 1 hr. The cells were treated with either 10 ng/mL of PDGF-BB for 10 min or with 100 μM H2O2 for 1 min and then cultured in the presence of 5-(and-6)-chloromethyl-2′,7′-dichlorohydrofluorescein diacetate(CM-H2DCF-DA: Molecular Probes Inc., Eurogene, Oreg., USA) in the dark room for 10 min and cultured cells and generation of reactive oxygen species were observed by using fluorescent microscope.
First, the amount of intracellular reactive oxygen species generated by PDGF-BB was measured by using peroxide-sensitive fluorophore DCF. As shown in FIG. 3A (B-1), the amount of intracellular reactive oxygen species generated by PDGF-BB evaluated with DCF fluorescence was 2.7 times greater. […] In this experiment, LAB was treated with PDGF-BB for 10 min. When LAB was pretreated, the amount of DCF fluorescence was decreased as compared to when it was treated only with PDGF-BB [FIG. 3A(A)]. […] Further, LAB decreased the activity of hydrogen peroxide, which increases the generation of intracellular reactive oxygen species, in proportion to its concentration (FIG. 3A(C)).

[2] = tested on: vascular smooth muscle cells; assay: VSMC proliferation induced by PDGF-BB (LDH and MTT assays); assay type: cell-based, Sprague-Dawley rats; conditions: LAB 1, 5, 10, 20, 30 μM pretreatment, PDGF-BB 24 hrs; LDH and MTT assays
Text: Vascular smooth muscle cells ('VSMC' hereinafter) were separated from thoracic aorta of a Sprague-Dawley weighted about 100-150 g by using collagenase digestion method and then cultured them according to the method disclosed in previous studies [[…], et al. Role of p44/p42 MAP kinase in the age-dependent increase in vascular smooth muscle cell proliferation and neointimal formation. Arterioscler Thromb Vasc Biol. Feb. 1 2003; 23(2):204-210.; Hamaguchi A, Kim S, Izumi Y, et al. Contribution of extracellular signal-regulated kinase to angiotensin II-induced transforming growth factor-beta1 expression in vascular smooth muscle cells. Hypertension. July 1999; 34(1):126-131]. […] The VSMC was treated in a culture medium not containing serum for 24 hrs prior to treatment with PDGF-BB, and the reaction according to the presence or absence of PDGF-BB was analyzed after pretreating with LAB or other reagents. […] The cells were then washed twice with PBS, lysed by using 0.5% Triton-X100, and then the activity of lactate dehydronase (LDH) was measured by using CytoTox-ONETM assay kit (Promega, Madison, Wis., USA) with fluorescence at […]. […]

O=C(/C=C/c1ccc(O)c2c1[C@H](C(=O)O[C@H](Cc1ccc(O)c(O)c1)C(=O)[O-])[C@@H](c1ccc(O)c(O)c1)O2)O[C@H](Cc1ccc(O)c(O)c1)C(=O)[O-].[Mg+2] [LAB, lithospermate B]
amount of intracellular reactive oxygen species generated by PDGF-BB ([1]; 10 ng/mL PDGF-BB 10 min): decreased in proportion to the concentration
intracellular reactive oxygen species induced by hydrogen peroxide ([1]; 100 μM H2O2 1 min): decreased
VSMC proliferation induced by PDGF-BB [2]: decreased in proportion to the concentration
